From the supplement of paper PMC10307832

Legend:
Experiment in all cases: relative viability (nuclei count vs DMSO), 5 days (fraction); higher = more cells survive
[1] = compound: C1CCC(CC1)N(CCNCCC2=C3C(=C(C=C2)O)NC(=O)CO3)C(=O)CCNCCC4=CC(=C(C=C4)Cl)Cl [AZ505] + CC1(C)CCC(c2ccc(Cl)cc2)=C(CN2CCN(c3ccc(C(=O)NS(=O)(=O)c4ccc(N[C@H](CCN5CCOCC5)CSc5ccccc5)c(S(=O)(=O)C(F)(F)F)c4)cc3)CC2)C1 [Navitoclax] (partner 0.5 µM)
Procedure, shortened: (§1)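 Lung cancer cell lines in 1536-well plates were dosed by pin tool the day after seeding, either with one drug alone or with a fixed anchor-drug dose plus five library-drug doses (not always all listed) in √10 steps. After 5 days, cells were fixed and their nuclei stained in one step (final 0.05% Triton X-100, 1% formaldehyde, 1 ug/ml Hoechst), then counted on 4× images. Relative viability is the nuclei count in treated wells divided by that in vehicle wells. Values are medians of duplicate plates.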

[2] = compound: Cn1c(=O)n(-c2ccc(C(C)(C)C#N)cc2)c2c3cc(-c4cnc5ccccc5c4)ccc3ncc21 [Dactolisib]
Procedure, shortened: (§2)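 Hoechst staining, done together with fixation and permeabilisation, marked nuclei for 4× imaging and MetaXpress counting. This followed 5 days without medium change after lung cancer cell lines, kept overnight at 37 °C in 1536-well plates, were pinned with five library-drug doses (not always all listed) spaced by √10 on vehicle-anchored plates. Viability is the ratio of treated-well to vehicle-well nuclei, expressed as a median across plates. Plates passed only at control CV below 25% with at least one doubling.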

[3] = compound: C1CCC(CC1)N(CCNCCC2=C3C(=C(C=C2)O)NC(=O)CO3)C(=O)CCNCCC4=CC(=C(C=C4)Cl)Cl [AZ505]
Procedure, shortened: as §2

[4] = compound: Cn1c(=O)n(-c2ccc(C(C)(C)C#N)cc2)c2c3cc(-c4cnc5ccccc5c4)ccc3ncc21 [Dactolisib] + N=C(N)NC(=N)NCCc1ccccc1 [Phenformin] (partner 250 µM)
Procedure, shortened: as §1

Row | Cell Line | relative viability ([1]; first compound 0.08 µM) | relative viability ([1]; first compound 0.253 µM) | relative viability ([1]; first compound 0.8 µM) | relative viability ([1]; first compound 2.53 µM) | relative viability ([1]; first compound 8 µM) | relative viability ([2]; 0.002 µM) | relative viability ([2]; 0.006325 µM) | relative viability ([2]; 0.02 µM) | relative viability ([2]; 0.06325 µM) | relative viability ([2]; 0.2 µM) | relative viability ([3]; 0.08 µM) | relative viability ([3]; 0.253 µM) | relative viability ([3]; 0.8 µM) | relative viability ([3]; 2.53 µM) | relative viability ([3]; 8 µM) | relative viability ([4]; first compound 0.002 µM) | relative viability ([4]; first compound 0.006325 µM) | relative viability ([4]; first compound 0.02 µM) | relative viability ([4]; first compound 0.06325 µM) | relative viability ([4]; first compound 0.2 µM)
1 | Calu-6 | 0.778 | 0.818 | 0.799 | 0.897 | 0.937 | 1.06 | 0.989 | 1.05 | 0.622 | 0.473 | 0.94 | 1.01 | 0.96 | 0.993 | 1.01 | – | – | – | – | –
2 | LC-2-ad | 0.285 | 0.594 | 0.528 | 0.491 | 0.54 | 1.03 | 0.959 | 1.06 | 0.823 | 0.58 | 0.902 | 0.922 | 1.01 | 1.07 | 0.998 | 0.601 | 0.572 | 0.539 | 0.42 | 0.391
3 | CAL-12T | 1.12 | 1.15 | 1.21 | 1.29 | 1.24 | 1.01 | 0.976 | 0.721 | 0.342 | 0.323 | 0.909 | 0.941 | 0.967 | 0.956 | 1.03 | 0.672 | 0.567 | 0.508 | 0.236 | 0.192
4 | RERF-LC-KJ | 1.3 | 0.901 | 0.916 | 0.869 | 0.753 | 1 | 0.961 | 0.889 | 0.497 | 0.509 | 0.947 | 0.968 | 0.925 | 0.953 | 0.943 | 0.42 | 0.415 | 0.428 | 0.298 | 0.302
5 | NCI-H1650 | 1.21 | 1.34 | 1.25 | 1.15 | 1.14 | 0.943 | 0.92 | 0.867 | 0.468 | 0.41 | 0.828 | 0.973 | 0.882 | 0.926 | 1.04 | 0.355 | 0.41 | 0.454 | 0.267 | 0.232
6 | ABC-1 | – | – | – | – | – | 0.954 | 0.921 | 0.868 | 0.719 | 0.458 | 0.899 | 0.963 | 0.975 | 0.985 | 1.05 | 0.246 | 0.244 | 0.24 | 0.231 | 0.199
7 | NCI-H1299 | 1.02 | 0.991 | 0.974 | 1.02 | 1 | 1 | 1.05 | 1.02 | 0.769 | 0.885 | 0.981 | 0.968 | 0.969 | 0.948 | 1 | – | – | – | – | –
8 | EBC-1 | 0.353 | 0.442 | 0.405 | 0.435 | 0.431 | 1.05 | 0.883 | 0.724 | 0.236 | 0.244 | 0.967 | 0.929 | 1.03 | 1.01 | 0.924 | – | – | – | – | –
9 | NCI-H1648 | – | – | – | – | – | 0.842 | 0.869 | 1.01 | 0.451 | 0.319 | 0.734 | 1.01 | 0.883 | 1.01 | 1.15 | – | – | – | – | –
10 | NCI-H650 | – | – | – | – | – | 1.07 | 0.937 | 0.892 | 0.747 | 0.412 | 1.01 | 0.887 | 0.948 | 1.1 | 1.01 | 0.549 | 0.475 | 0.433 | 0.389 | 0.315
11 | NCI-H358 | – | – | – | – | – | 0.914 | 0.895 | 0.834 | 0.413 | 0.272 | 0.785 | 0.829 | 0.812 | 0.755 | 0.925 | 0.317 | 0.302 | 0.286 | 0.221 | 0.111
12 | NCI-H1563 | – | – | – | – | – | 1 | 0.928 | 0.885 | 0.605 | 0.562 | 0.998 | 1.04 | 0.968 | 0.93 | 0.939 | 0.674 | 0.622 | 0.626 | 0.61 | 0.54
13 | NCI-H522 | – | – | – | – | – | 0.971 | 0.932 | 0.967 | 0.895 | 0.568 | 0.922 | 0.961 | 0.981 | 1.05 | 1 | 0.591 | 0.647 | 0.548 | 0.535 | 0.631
14 | IA-LM | 0.622 | 0.943 | 0.703 | 0.779 | 0.872 | 1 | 0.837 | 0.701 | 0.273 | 0.129 | 0.931 | 0.914 | 0.898 | 0.953 | 1.13 | – | – | – | – | –
15 | NCI-H1703 | 1.05 | 1.36 | 1.32 | 1.31 | 1.55 | – | 0.768 | 0.784 | 0.479 | 0.405 | 0.733 | 0.853 | 1.04 | 1.11 | 1.03 | – | – | – | – | –
16 | LCLC-103H | – | – | – | – | – | 1.03 | 0.95 | 0.964 | 0.785 | 0.624 | 0.989 | 0.903 | 0.925 | 1.02 | 0.896 | 0.369 | 0.321 | 0.345 | 0.317 | 0.291
17 | SW 900 | – | – | – | – | – | 0.913 | 0.769 | 0.714 | 0.329 | 0.346 | 0.857 | 0.856 | 0.818 | 0.963 | 0.97 | 0.67 | 0.536 | 0.591 | 0.288 | 0.198
